The source of these data is patent US20040224914A1, “Method for treatment of angiogenic disorders” (The University of British Columbia, priority 2003, published 2004).

Data set [1] concerns HUVECS. Briefly: HUVECS cell viability (mts) after antisense with or without drug. Type of data set: cell-based, human. The procedure: HUVECS were grown for 2 days in wells after seeding at 1200 per well. Antisense oligonucleotide of Seq. ID No. 5 (4 μg/ml with LIPOFECTIN™) was added in serum free medium and incubated with the cells for 4 hours. Then 100 μl of serum was added and incubation was continued overnight. The next day, 150 μl of drug solution in serum medium was added. After two days, 20 μl of mts solution was added and left for approximately 3 hours. Cell viability was determined as the difference between absorption at 490 and 595 nm.

Data set [2] relates to HUVECS. To be noted: by the induction of apoptosis; cited from earlier work.
[3] abbreviates: Table 2 series, Drug alone (100 nM camptothecin).
The mark [4] stands for this setting: Table 3 series, Drug alone (200 nM doxorubicin).
[5] abbreviates: Table 1 series, Drug alone (100 nM paclitaxel).
Where [6] appears, read: Table 1 series, AS 50 nM, no drug.
Where [7] appears, read: Table 1 series, AS 100 nM, no drug.
The mark [8] stands for this setting: Table 1 series, AS 200 nM, no drug.
The mark [9] stands for this setting: Table 1 series, Drug (100 nM paclitaxel) + AS 50 nM.
Setting [10] is: Table 1 series, Drug (100 nM paclitaxel) + AS 100 nM.
Where [11] appears, read: Table 1 series, Drug (100 nM paclitaxel) + AS 200 nM.
[12] abbreviates: Table 2 series, AS 50 nM, no drug.
Where [13] appears, read: Table 2 series, AS 100 nM, no drug.
The mark [14] stands for this setting: Table 2 series, AS 200 nM, no drug.
[15] abbreviates: Table 2 series, Drug (100 nM camptothecin) + AS 50 nM.
The mark [16] stands for this setting: Table 2 series, Drug (100 nM camptothecin) + AS 100 nM.
Where [17] appears, read: Table 2 series, Drug (100 nM camptothecin) + AS 200 nM.
[18] abbreviates: Table 3 series, AS 50 nM, no drug.
The mark [19] stands for this setting: Table 3 series, AS 100 nM, no drug.
Setting [20] is: Table 3 series, AS 200 nM, no drug.
Setting [21] is: Table 3 series, Drug (200 nM doxorubicin) + AS 50 nM.
Where [22] appears, read: Table 3 series, Drug (200 nM doxorubicin) + AS 100 nM.
The mark [23] stands for this setting: Table 3 series, Drug (200 nM doxorubicin) + AS 200 nM.

For `CC[C@@]1(O)C(=O)OCc2c1cc1n(c2=O)Cc2cc3ccccc3nc2-1` [camptothecin, reference compound], in the data set on HUVECS [1] (setting [3]), the “absorbance at 490 nm (mts, cell viability)” value (“absorbance at 490 nm” for short) is on record as 0.55 and the “absorbance at 595 nm (mts, cell viability)” value (“absorbance at 595 nm” below) was found to be 0.07. The “concentration range that inhibits Huvecs” value in the data set with HUVECS [2] was “low nanomolar range”.
Consider `COc1cccc2c1C(=O)c1c(O)c3c(c(O)c1C2=O)C[C@@](O)(C(=O)CO)C[C@@H]3O[C@H]1C[C@H](N)[C@H](O)[C@H](C)O1` [doxorubicin, reference compound], for which, in the data set with HUVECS [1] (setting [4]), the “absorbance at 490 nm” value was 0.74 and the “absorbance at 595 nm” value turned out to be 0.08. Moreover, the “concentration range that inhibits Huvecs” value in the data set on HUVECS [2] is “low nanomolar range”.
Regarding `CC(=O)O[C@H]1C(=O)[C@@]2(C)[C@H]([C@H](OC(=O)c3ccccc3)[C@]3(O)C[C@H](OC(=O)[C@H](O)[C@@H](NC(=O)c4ccccc4)c4ccccc4)C(C)=C1C3(C)C)[C@]1(OC(C)=O)CO[C@@H]1C[C@@H]2O` [paclitaxel, reference compound], in the data set on HUVECS [1] (setting [5]), the “absorbance at 490 nm” value was 0.53 and the “absorbance at 595 nm” value turned out to be 0.12. In addition, the “concentration range that inhibits Huvecs” value with HUVECS [2] was “low nanomolar range”.
Turning to “AS: Antisense oligonucleotide of Seq. ID No. 5, which reduces the effective amount of clusterin (antisense CAGCAGCAGAGTCTTCATCAT; listed as DNA, chemistry not given here)”, the “cell viability response to antisense concentration” value with HUVECS [1] (FIG. 1, paclitaxel series) was “dose dependent response”; with HUVECS [1] (FIG. 2, camptothecin series) it was “dose dependent response”; with HUVECS [1] (FIG. 3, doxorubicin series) it was “dose dependent response”. For the same molecule, the “cell viability response to antisense in the presence of drug versus absence” value in the data set with HUVECS [1] (FIG. 1, in the presence of 100 nM paclitaxel) is “the response is greater”; with HUVECS [1] (FIG. 2, in the presence of 100 nM camptothecin), “the response is greater”; in the data set with HUVECS [1] (FIG. 3, in the presence of 200 nM doxorubicin), “the response is greater”. The “absorbance at 490 nm” value stood at 0.66 in the data set on HUVECS [1] (setting [6]); 0.40 in the data set with HUVECS [1] (setting [7]); 0.28 with HUVECS [1] (setting [8]); 0.50 in the data set on HUVECS [1] (setting [9]); 0.24 in the data set with HUVECS [1] (setting [10]); 0.17 in the data set with HUVECS [1] (setting [11]). Also, the “absorbance at 490 nm” value is reported as 0.66 in the data set on HUVECS [1] (setting [12]); 0.39 with HUVECS [1] (setting [13]); 0.21 in the data set on HUVECS [1] (setting [14]); 0.53 in the data set with HUVECS [1] (setting [15]); 0.31 in the data set with HUVECS [1] (setting [16]); 0.15 in the data set on HUVECS [1] (setting [17]). Moreover, the “absorbance at 490 nm” value in the data set with HUVECS [1] (setting [18]) is on record as 0.66; with HUVECS [1] (setting [19]), 0.35; in the data set with HUVECS [1] (setting [20]), 0.22; in the data set on HUVECS [1] (setting [21]), 0.66; in the data set on HUVECS [1] (setting [22]), 0.32; with HUVECS [1] (setting [23]), 0.18. Also, the “absorbance at 595 nm” value in the data set on HUVECS [1] (setting [6]) came to 0.04; with HUVECS [1] (setting [7]), 0.09; with HUVECS [1] (setting [8]) it was 0.07; in the data set on HUVECS [1] (setting [9]) it was 0.09; in the data set on HUVECS [1] (setting [10]), 0.04; in the data set on HUVECS [1] (setting [11]) it was 0.05. The “absorbance at 595 nm” value in the data set on HUVECS [1] (setting [12]) is 0.10; in the data set on HUVECS [1] (setting [13]), 0.06; with HUVECS [1] (setting [14]), 0.04; in the data set on HUVECS [1] (setting [15]), 0.07; in the data set on HUVECS [1] (setting [16]), 0.08; with HUVECS [1] (setting [17]) it was 0.05. In addition, the “absorbance at 595 nm” value with HUVECS [1] (setting [18]) is recorded as 0.07; in the data set on HUVECS [1] (setting [19]), 0.05; in the data set with HUVECS [1] (setting [20]), 0.04; with HUVECS [1] (setting [21]) it was 0.06; with HUVECS [1] (setting [22]), 0.04; with HUVECS [1] (setting [23]) it was 0.02. In addition, the “effect of antisense on inhibition of cell proliferation induced by antiproliferative drugs” value in the data set on HUVECS [1] (paclitaxel, camptothecin, doxorubicin, downregulation of clusterin) is listed as “enhanced”.
